# Assay results: patent US7560436B2, “Methods of treating gastrointestinal inflammation” (The Regents of the University of California, priority 2005, dated 2009)
# Tests used:
# [1] = system: bone marrow-derived myeloid dendritic cells (MDC) from RAG−/− mice; assay: DNA-PK inhibitor on CpG-ODN-induced cytokine production in MDC; type: cell-based, mouse; conditions: various concentrations of NU7026, with or without CpG-ODN
# Protocol: Since deletion of the kinase domain of DNA-PKcs is responsible for the SCID phenotype, the role of DNA-PK in TLR9-mediated type-I IFN induction was investigated. To do so, bone marrow-derived myeloid dendritic cells (MDC) from RAG^−/− mice were incubated with various concentrations of NU7026, a DNA-PK inhibitor (Calbiochem, San Diego, Calif.), with or without CpG-ODN. […] In contrast, the activation of NF-κB, MAPK, IRF-3 and IRF-7 were similar in these cells (FIG. 2B), indicating a specific signaling blockade downstream to TLR9 in SCID but not in RAG^−/− BM-MDC.
# DSS-induced colitis = DSS-induced colitis in mice (disease activity index, colonic MPO activity, histological score, mortality); type: in vivo, mouse; conditions: for DAI (disease activity index) / HS (histological score) / MPO (U/g): 1.5% DSS
# Description: In a previous study the concentration of DSS was identified that was required to induce a similar severity of colitis in the different mouse strains used in this study (Rachmilewitz et al. (2004) Gastroenterology 126:520-528). Mice on the B6 background were given 1.5% (w/v) DSS, mice on the 129/SvEv background were given 4% DSS and mice on the Balb/c background were given 3.5% DSS dissolved in sterile, distilled water ad libitum for 7 days (Rachmilewitz et al. (2004) supra). […] The disease activity index (DAI; the combined score of weight loss and bleeding) was determined as described (Rachmilewitz et al. (2002) Gastroenterology 122:1428-144110; and Rachmilewitz et al. (2004) supra). Briefly, scores are defined as follows: Loss in body weight: 0=no loss; 1=5% to 10%; 2=10% to 15%; 3=15% to 20%; 4=over 20%. Hemoccult: 0=no blood; 2=positive; 4=gross blood.
# The colon tissues were longitudinally opened and a 50 mg portion was homogenized in hexadecyltrimethyl-ammonium bromide (0.5%) in 50 mmol/L phosphate buffer, pH6.0. The homogenate was sonicated for 10 seconds, freeze-thawed 3 times, and centrifuged for 15 minutes. An aliquot of the supernatant was taken for determination of enzyme activity as described (Rachmilewitz et al. (2002) supra; and Rachmilewitz et al. (2004) supra).
# After 7 days of DSS administration, mice were killed and the entire colon was excised, longitudinally opened, rolled onto a wooden stick, fixed with Bouin's Solution (Sigma, St. Louis, Mo.), and embedded in paraffin. Tissue sections (5 μm) were prepared, deparaffinized, and stained with hematoxylin and eosin. Histological scoring was performed in a blinded fashion. Colonic epithelial damage was scored as follows: 0=normal; 1=hyper-proliferation, irregular crypts, and goblet cell loss; 2=mild to moderate crypt loss (10-50%); 3=severe crypt loss (50-90%); 4=complete crypt loss, surface epithelium intact; 5=small to medium sized ulcer (<10 crypt widths); 6=large ulcer (≧10 crypt widths). Infiltration with inflammatory cells was scored separately for mucosa (0=normal, 1=mild, 2=modest, 3=severe), submucosa (0=normal, 1=mild to modest, 2=severe), and muscle/serosa (0=normal, 1=moderate to severe). Scores for epithelial damage and inflammatory cell infiltration were added, resulting in a total scoring range of 0-12.
# [2] = RAG1−/− mice (B6), ODN 10 μg/animal s.c. once 2 h prior, day 7, mean±SEM
# [3] = SCID mice (B6), ODN 10 μg/animal s.c. once 2 h prior, day 7, mean±SEM
# [4] = Table 6: SCID mice (B6), 1000 U recombinant mIFN-β i.p. prior to and on days 2, 4, 6, day 7, mean±SEM
compound,measurement,setting,value
O=c1cc(N2CCOCC2)oc2c1ccc1ccccc12 [NU7026],IFN-α/β production induced by CpG-ODN,[1],selectively inhibited IFN-α/β
same,IL-12 (p40) production induced by CpG-ODN,[1],without affecting IL-12 (p40) production
"CpG-ODN-2: phosphodiester and phosphothioate-modified class A CpG-ODN, 5′-Ggtgcatcgatgca GGGGGg-3′; SEQ ID NO:05 (GGTGCATCGATGCAGGGGGG; DNA, linkages s1 o13 s5 (s phosphorothioate, o phosphodiester), methylation of C not given here)",DAI (disease activity index),DSS-induced colitis; [2],1.9 ± 0.7^A
same,HS (histological score),DSS-induced colitis; [2],5.0 ± 0.8^A
same,MPO (U/g),DSS-induced colitis; [2],0.9 ± 0.2^A U/g
same,DAI (disease activity index),DSS-induced colitis; [3],6.5 ± 0.6
same,HS (histological score),DSS-induced colitis; [3],9.8 ± 0.3
same,MPO (U/g),DSS-induced colitis; [3],1.3 ± 0.1 U/g
IFN-β: recombinant murine IFN-β from Chemicon International,disease activity and histological scores (in words),"DSS-induced colitis; DSS-treated SCID mice, recombinant mIFN-β",decreased the disease activity and the histological scores
same,DAI (disease activity index),DSS-induced colitis; [4],4.6 ± 0.9^A
same,HS (histological score),DSS-induced colitis; [4],6.8 ± 1.2^A
same,MPO (U/g),DSS-induced colitis; [4],1.2 ± 0.1 U/g
